Test results as given in patent US20230365570A1, “COMPOUNDS WITH GLUCOCORTICOID SPARING EFFECTS AND USES THEREOF” (The Regents of the University of California, priority 2020, published 2023).

Columns and labels:
[1] = system: THP-1 cells; assay: IL-1ß stimulated CXCL8 release by THP-1 cells; assay type: cell-based, human; settings: IL-1ß 2 ng/ml, overnight (FIG. 3C)
Protocol: (§1) THP-1 cells (10^5 cells/200 μL/well) and RA FLS (104/200 μL/well) were plated in 96 well plates and pre-treated with compound or vehicle for 1 h and then stimulated with either LPS (10 ng/ml), 1L-1ß (2 ng/ml) or TNF (2 ng/ml for THP-1 and 1 ng/ml for RA FLS). After 18 h of incubation, supernatants were collected and the levels of cytokines and chemokines in the culture supernatants were measured by ELISA according to the manufacturer's protocols (R&D systems, Minneapolis, MN).
(§2) The lead compounds belonging to chemotypes 1, 3, and 5 were tested for potency in suppressing chemokine and cytokine production by THP-1 cells in the presence of different inflammatory stimuli. The production of CXCL8 induced by either LPS (10 ng/ml), IL-1ß (2 ng/ml), or TNF (2 ng/ml) and TNF induced by IL-1ß (2 ng/ml) was assessed using serially diluted compounds. The compounds except 1-2 reduced the level of CXCL8 production stimulated by LPS in a dose dependent manner (FIG. 3A). However, the compounds from chemotype 5 enhanced CXCL8 release by THP-1 cells when stimulated with IL-111, or TNF (FIGS. 3B, C). […] The 1Cs0 for 1-1, 1-2 and 3-1 for IL-1ß stimulated CXCL8 release included 400, 1770, and 2020 nM, respectively, (FIG. 3C).

[2] = system: THP-1 cells; assay: TNF stimulated CXCL8 release by THP-1 cells; assay type: cell-based, human; settings: TNF 2 ng/ml, overnight (FIG. 3B)
Protocol: as §1, §2

[3] = system: THP-1 cells; assay: IL-1ß stimulated TNF release by THP-1 cells; assay type: cell-based, human
Protocol: as §1, §2

[4] = system: THP-1 cells; assay: CXCL8 production by LPS stimulated THP-1 cells (ELISA); assay type: cell-based, human; settings: LPS 10 ng/ml, purchased compound, mean LPS CXCL8 201.1 pg/ml = 100%
Protocol: as §1
The 122 hit compounds underwent additional screening and were evaluated for their effects on cell viability and the ability to suppress production of an NF-κB-associated chemokine, CXCL8 (IL-8) by LPS stimulated THP-1 cells (FIG. 2D). The cells were also examined for viability after 24 h of stimulation by MTT assay (FIG. 2E).
Three of the eleven chemotypes were excluded based on the potential for them to be Michael acceptors, In many cases α,β-unsaturated carbonyls such as those found in these chemotypes can form adducts with thiols, especially under physiological conditions (pH=6-8), reducing the in vivo efficacy. Also, Michael acceptors are often […] IKKß inhibitors and thereby inhibit NF-KB response. […]

[5] = system: THP-1 cells; assay: Cell viability by MTT assay in THP-1 cells; assay type: cell-based, human; settings: for Cellular viability (% Viability compared to Veh): 10 uM (FIG. 8B)
Protocol: Two types of tetrazolium were used for viability assays. […] After 18 h of incubation, 0.5 mg/ml 3[4,5-dimethylthiazol-2-yl]-2,5-dipheyl tetrazolium bromide (MTT; Thermo Fisher Scientific) in assay media was added to each well at a final concentration of (0.5 mg/ml) and further incubated for 4-6 h. The absorbances at 570 and 650 nm were measured by a Tecan Infinite M200 plate reader, For RA FLS, the cells were dispersed into 96-well flat bottom plates (104/200 μL/well) and incubated overnight. The next day, RA FLS were treated with 5 μM of each compound for 18 h of incubation. Ten μl of WST-8 [2-(2-methoxy-4-nitrophenyl)-3-(4-nitrophenyl)-5-(2,4-disulfophewnyl)-2H-tetrazolium, monosodium salt] solution was added to each well and the cells were further incubated for 2-4 h. The absorbance was measured at 450 nm with Bio-Rad iMark plate reader (Bio-Rad Laboratories Inc., Hercules, CA, Unites States).

[6] = system: THP-1 cells; assay: Combination and synergy of compounds with DEX, CXCL8 release by TNF stimulated THP-1 cells; assay type: cell-based, human
Protocol: Drug synergy analysis was performed using lsobologram plots which were calculated according to reported procedures to compute IC50 and determine synergism. IC50 is computed from the median effect equation. Synergism analysis is carried out using the Combination index (Cl)-isobol method. Data analysis was performed using the CompuSyn software available on combisyn.com, Detailed methodology was used as described in a prior report. Briefly, the median-effect equation is computed to obtain the linear regression for the effect of inhibitors DEX and 1−1 as Fa/Fu=(D/D50)^m, where D is the dose; Fa and Fu is the fraction of the inhibition and uninhibited response by the dose D (Fa+Fu=1); D50 is the dose producing the median effect (i.e, IC50). The constant m determines the shape of the dose-effect curve. The median-effect equation in logarithmic form is log (Fa/Fu) =m log(D)−m log (D50) which essentially represents a linear relationship between log(Fa/Fu) and log(D). […] This is followed by Cl-isobol method to quantitatively assess the synergism between these inhibitor drugs. A combination index (Cl) is estimated from dose-effect data of single and combined drug treatments. A value of C; less than one indicates synergism; Cl=1 indicates additive effect; and Cl>1 indicates antagonism. Drug interaction (synergism or antagonism) is more pronounced the further a CI value is from 1. […] The doses Dx1 and Dx2 were estimated from the median effect equation above for single drug treatments. From the median effect equation, the estimated dose (i.e., D) necessary to produce the inhibition (i.e., Fa, Fu) obtained by the combination was calculated. The results are presented as a normalized isobolograrn. A point in the isobologram represents the effect of a drug(s) treatment.
To assess whether the remaining candidate compounds would provide additional benefit to a low dose of glucocorticoid, THP-1 cells were stimulated with TNF and treated them with serially diluted compounds and 100 nM DEX (FIGS. 4A-C). […] Next whether there was an additive or synergistic effect with these three compounds and DEX was formally addressed. […] The four CXCL8 levels below the maximum plateau were used to calculate an isobologram (FIG. 5D).

[7] = system: murine bone marrow-derived dendritic cells (BMDCs); assay: TNF-α and IP-10 induction by TLR and STING ligands in murine BMDCs; assay type: cell-based, mouse; settings: BMDCs from WT and Tmem173-/- mice (FIGS. 9A-D)
Protocol: (§3) FIGS. 9A-9F show the partial STING dependent activity of nitrofuranylamide compounds 4, 5 and 6 and inhibition of TLR pathways.
(§4) Since the synthesized compounds were identified via assays in human cells, there was interest in verifying the potency of these compounds in murine cells. Compounds were incubated with murine bone marrow-derived dendritic cells (BM DCs) obtained from wild-type (WT) mice and STING null (Tmem173^−/−) mice as STING had been reported as the target of other nitrofuranylamides. […] To compare these compounds, the IC50 values of these compounds were assessed in dose titration studies.

[8] = system: mBMDCs; assay: IFNβ induced by DMXAA in mBMDCs; assay type: cell-based, mouse; settings: for IFNβ induced by DMXAA: mBMDCs (FIG. 9F)
Protocol: as §3, §4

[9] = system: mice; assay: K/BxN serum induced arthritis and allodynia in mice; assay type: in vivo, mouse
Protocol: FIGS. 10A-10D show the in vivo activity of compound 5 in WT and STING knock-out Tmem173^−/− mice. Mice were induced with K/B×N serum on days 0 and 2 to have arthritis and related pain. Compound 5 was administered (750 nmol) IP BID on days 0-5. […] (B) These effects of compound 5 are not seen in similarly treated Tmem173−/− mice. Mechanical allodynia is measured with monofilaments in a von Frey assay and increase in pain perception by the animal is recorded as a drop in the threshold. *P<0.0001 by two-way ANOVA.

[10] = system: NF-κB; assay: NF-κB activation assay in LPS stimulated CellSensor NF-κB-bla THP-1 reporter cells; assay type: cell-based, human; settings: 5 h and 16 h time points
Protocol: In the presence of lactamase, CCF4 was enzymatically cleaved and excitation at 409 nm produced a blue fluorescence signal (at 450 nm), The CellSensor® NF-κB-bla THP-1 cells were dispersed in 96-well plates (5×10^4 cells/200 μL/well) and incubated for 4 h, Then the cells were treated with 5 μM of each compound and 10 ng/ml of LPS for 5 or 12 h in 5% CO2 at 37° C. After incubation, the ß-lactamase substrate mixture (prepared according to the manufacturer's protocol) was added to each well. Plates were incubated at room temperature in the dark for 2 h. Fluorescence was measured on a Tecan Infinite M200 plate reader (Tecan, Mannedorf, Switzerland) at an excitation wavelength of 405 nm and emission wavelengths of 465 and 535 nm. Emission ratios are calculated by dividing values from emission wavelength of 465 nm by those from emission wavelength of 535 nm, The response ratio was calculated as follows [(emission ratio of a test well)/average emission ratio of wells with vehicle (0.5% DMSO)] and values were normalized to the LPS control treated wells [response ratio of the compound/response ratio of LPS].
Using LPS as a primary inflammatory stimulus the effect of these compounds on NF-κB activity was evaluated at two time points to profile the kinetics of their suppression.

[11] = WT mice, 750 nmoles IP BID for 6 days

CCCCNc1ncnc2c1cnn2-c1ccc(C)cc1C [Compound 1-2]
IC50 [1]: 1.77 µM | IC50 [2]: 4.13 µM | IC50 ([3]; THP-1 cells, IL-1ß 2 ng/ml, overnight (FIG. 3D)): 2.77 µM | CXCL8 production. Relative to LPS (purchased) [4]: 70.1% | % Cellular Viability (Purchased) ([5]; purchased compound): 100.1% | Effect of addition of DEX on CXCL8 production ([6]; TNF 2 ng/ml stimulated THP-1 cells, serially diluted compound plus 100 nM DEX (FIGS. 4A-C)): only effective at the lower doses | Synergy with DEX, isobologram of potency ratios for CXCL8 ([6]; TNF stimulated THP-1 cells, compound and DEX titrated at same molarity (FIG. 5D)): modestly synergistic

CCOc1ccc(NC(=O)c2ccc([N+](=O)[O-])o2)cc1 [Compound 4]
TNF release when stimulated with IL-1ß ([3]; THP-1 cells): Dose-dependent inhibition | mIP-10 production induced by TLR4 (LPS), TLR7 (1V270) and STING (DMXAA) ligands [7]: inhibited | mTNF-a production induced by TLR4 (LPS), TLR7 (1V270) and STING (DMXAA) ligands [7]: inhibited | Cellular viability (% Viability compared to Veh) [5]: approximately 100% | IFNβ induced by DMXAA [8]: Dose-dependent inhibition

O=C(Nc1cccc(C(F)(F)F)c1)c1ccc([N+](=O)[O-])o1 [Compound 5]
Cytokine inhibition IC50, human cell studies ([3]; THP-1 cells stimulated with IL-1β, TNF-a (FIG. 9E)): nanomolar (nM) range | TNF release when stimulated with IL-1ß ([3]; THP-1 cells): Dose-dependent inhibition | mIP-10 production induced by TLR4 (LPS), TLR7 (1V270) and STING (DMXAA) ligands [7]: inhibited | mTNF-a production induced by TLR4 (LPS), TLR7 (1V270) and STING (DMXAA) ligands [7]: inhibited | Cellular viability (% Viability compared to Veh) [5]: approximately 100% | IFNβ induced by DMXAA [8]: Dose-dependent inhibition | Cytokine inhibition IC50, mouse cell studies ([8]; mBMDCs stimulated with DMXAA, IFNβ (FIG. 9F)): nanomolar (nM) range | Pain or swelling in Tmem173-/- mice ([9]; Tmem173-/- mice, 750 nmol IP BID): no statistically significant effect | Acute inflammation in the ankle (ankle thickness) [9, 11]: modest effect | Mechanical allodynia (von Frey filaments) [9, 11]: significantly reduced

O=C(Nc1cc([N+](=O)[O-])ccc1Cl)c1ccc([N+](=O)[O-])o1 [Compound 6]
TNF release when stimulated with IL-1ß ([3]; THP-1 cells): Dose-dependent inhibition | mIP-10 production induced by TLR4 (LPS), TLR7 (1V270) and STING (DMXAA) ligands [7]: inhibited | mTNF-a production induced by TLR4 (LPS), TLR7 (1V270) and STING (DMXAA) ligands [7]: inhibited | Cellular viability (% Viability compared to Veh) [5]: approximately 100% | IFNβ induced by DMXAA [8]: Dose-dependent inhibition

C[C@@H]1C[C@H]2[C@@H]3CCC4=CC(=O)C=C[C@]4(C)[C@@]3(F)[C@@H](O)C[C@]2(C)[C@@]1(O)C(=O)CO [DEX, dexamethasone, reference compound]
IC50 ([6]; Homo sapiens, TNF stimulated THP-1 cells, single agents (FIG. 5A), read-out: IC50 for TNF stimulated CXCL8 release (titration with DEX)): 0.3 µM

NC(=O)Nc1sc(-c2ccc(F)cc2)cc1C(N)=O [UTC, 5-(4-fluorophenyl)-2-ureidothiophene-3 carboxylic acid amide]
Inhibition of NF-κB activity [10]: inhibited NF-κB activity at both time points

polymyxin B
Inhibition of NF-κB activity [10]: suppressed NF-κB activity at both timepoints
